Columns and labels:
Assay type in all cases: ADME
[1] = (§1) The drug is tested on the gut metagenome community of A-06 with ENA study accession number: PRJEB31790 for biotransformation under anaerobic condition. The drug concentrations were measured over 7 timepoints collected between 0 and 12 hours of incubation by liquid-chromatography-coupled mass spectrometry (LC–MS); set-up: dose 5 uM, timepoint 0, 0.75, 1.5, 3, 6, 9, 12 hours; details: 5 µM
[2] = as §1, with “P-04” for “A-06”; set-up: dose 5 uM, timepoint 0, 0.75, 1.5, 3, 6, 9, 12 hours; details: 5 µM
[3] = The drug is tested on Bifidobacterium adolescentis strain: DSM20083 for biotransformation under anaerobic condition. The drug concentrations were measured over 6 timepoints collected between 0 and 12 hours of incubation by liquid-chromatography-coupled mass spectrometry (LC–MS); set-up: dose 5 uM, timepoint 0, 1.5, 3, 6, 9, 12 hours; details: 5 µM
[4] = as §1, with “T-04” for “A-06”; set-up: dose 5 uM, timepoint 0, 0.75, 1.5, 3, 6, 9, 12 hours; details: 5 µM
[5] = as §1, with “T-01” for “A-06”, “microaerobic” for “anaerobic”; set-up: dose 5 uM, timepoint 0, 0.75, 1.5, 3, 6, 9, 12 hours; details: 5 µM
[6] = as §1, with “A-03” for “A-06”, “microaerobic” for “anaerobic”; set-up: dose 5 uM, timepoint 0, 0.75, 1.5, 3, 6, 9, 12 hours; details: 5 µM
[7] = The drug is tested on Eubacterium rectale strain: DSM17629 for biotransformation under anaerobic condition. The drug concentrations were measured over 6 timepoints collected between 0 and 12 hours of incubation by liquid-chromatography-coupled mass spectrometry (LC–MS); set-up: dose 5 uM, timepoint 0, 1.5, 3, 6, 9, 12 hours; details: agathobacter rectalis, 5 µM
[8] = The drug is tested on Bacteroides xylanisolvens strain: HM 722 for biotransformation under anaerobic condition. The drug concentrations were measured over 6 timepoints collected between 0 and 12 hours of incubation by liquid-chromatography-coupled mass spectrometry (LC–MS); set-up: dose 5 uM, timepoint 0, 1.5, 3, 6, 9, 12 hours; details: 5 µM
[9] = The drug is tested on Parabacteroides merdae strain: DSM19495 for biotransformation under anaerobic condition. The drug concentrations were measured over 6 timepoints collected between 0 and 12 hours of incubation by liquid-chromatography-coupled mass spectrometry (LC–MS); set-up: dose 5 uM, timepoint 0, 1.5, 3, 6, 9, 12 hours; details: 5 µM
[10] = The drug is tested on Odoribacter splanchnicus strain: DSM20712 for biotransformation under anaerobic condition. The drug concentrations were measured over 6 timepoints collected between 0 and 12 hours of incubation by liquid-chromatography-coupled mass spectrometry (LC–MS); set-up: dose 5 uM, timepoint 0, 1.5, 3, 6, 9, 12 hours; details: 5 µM
[11] = as §1, with “A-01” for “A-06”, “microaerobic” for “anaerobic”; set-up: dose 5 uM, timepoint 0, 0.75, 1.5, 3, 6, 9, 12 hours; details: 5 µM
[12] = as §1, with “A-02” for “A-06”, “microaerobic” for “anaerobic”; set-up: dose 5 uM, timepoint 0, 0.75, 1.5, 3, 6, 9, 12 hours; details: 5 µM
[13] = The drug is tested on Clostridium bolteae strain: DSM15670 for biotransformation under anaerobic condition. The drug concentrations were measured over 6 timepoints collected between 0 and 12 hours of incubation by liquid-chromatography-coupled mass spectrometry (LC–MS); set-up: dose 5 uM, timepoint 0, 1.5, 3, 6, 9, 12 hours; details: enterocloster bolteae, 5 µM
[14] = The drug is tested on Bacteroides vulgatus strain: DSM1447 for biotransformation under anaerobic condition. The drug concentrations were measured over 6 timepoints collected between 0 and 12 hours of incubation by liquid-chromatography-coupled mass spectrometry (LC–MS); set-up: dose 5 uM, timepoint 0, 1.5, 3, 6, 9, 12 hours; details: phocaeicola vulgatus, 5 µM
[15] = as §1, with “T-04” for “A-06”, “microaerobic” for “anaerobic”; set-up: dose 5 uM, timepoint 0, 0.75, 1.5, 3, 6, 9, 12 hours; details: 5 µM
[16] = The drug is tested on Gemella morbillorum strain: DSM20572 for biotransformation under anaerobic condition. The drug concentrations were measured over 6 timepoints collected between 0 and 12 hours of incubation by liquid-chromatography-coupled mass spectrometry (LC–MS); set-up: dose 5 uM, timepoint 0, 1.5, 3, 6, 9, 12 hours; details: 5 µM
[17] = The drug is tested on Actinomyces naeslundi strain: DSM43013 for biotransformation under anaerobic condition. The drug concentrations were measured over 6 timepoints collected between 0 and 12 hours of incubation by liquid-chromatography-coupled mass spectrometry (LC–MS); set-up: dose 5 uM, timepoint 0, 1.5, 3, 6, 9, 12 hours; details: actinomyces naeslundii, 5 µM
[18] = The drug is tested on Actinomyces naeslundi strain: DSM43013 for biotransformation under microaerobic condition. The drug concentrations were measured over 6 timepoints collected between 0 and 12 hours of incubation by liquid-chromatography-coupled mass spectrometry (LC–MS); set-up: dose 5 uM, timepoint 0, 1.5, 3, 6, 9, 12 hours; details: actinomyces naeslundii, 5 µM
[19] = The drug is tested on Lactobacillus fermentum strain: DSM20052 for biotransformation under microaerobic condition. The drug concentrations were measured over 6 timepoints collected between 0 and 12 hours of incubation by liquid-chromatography-coupled mass spectrometry (LC–MS); set-up: dose 5 uM, timepoint 0, 1.5, 3, 6, 9, 12 hours; details: limosilactobacillus fermentum, 5 µM
[20] = The drug is tested on Bacteroides ovatus strain: ATCC 8483 for biotransformation under anaerobic condition. The drug concentrations were measured over 6 timepoints collected between 0 and 12 hours of incubation by liquid-chromatography-coupled mass spectrometry (LC–MS); set-up: dose 5 uM, timepoint 0, 1.5, 3, 6, 9, 12 hours; details: 5 µM
[21] = as §1, with “P-03” for “A-06”; set-up: dose 5 uM, timepoint 0, 0.75, 1.5, 3, 6, 9, 12 hours; details: 5 µM
[22] = as §1, with “T-02” for “A-06”; set-up: dose 5 uM, timepoint 0, 0.75, 1.5, 3, 6, 9, 12 hours; details: 5 µM
[23] = The drug is tested on Bifidobacterium longum strain: DSM20088 for biotransformation under microaerobic condition. The drug concentrations were measured over 6 timepoints collected between 0 and 12 hours of incubation by liquid-chromatography-coupled mass spectrometry (LC–MS); set-up: dose 5 uM, timepoint 0, 1.5, 3, 6, 9, 12 hours; details: 5 µM
[24] = The drug is tested on Gemella haemolysans strain: DSM107751 for biotransformation under microaerobic condition. The drug concentrations were measured over 6 timepoints collected between 0 and 12 hours of incubation by liquid-chromatography-coupled mass spectrometry (LC–MS); set-up: dose 5 uM, timepoint 0, 1.5, 3, 6, 9, 12 hours; details: 5 µM
[25] = as §1, with “microaerobic” for “anaerobic”; set-up: dose 5 uM, timepoint 0, 0.75, 1.5, 3, 6, 9, 12 hours; details: 5 µM
[26] = as §1, with “T-03” for “A-06”; set-up: dose 5 uM, timepoint 0, 0.75, 1.5, 3, 6, 9, 12 hours; details: 5 µM
[27] = The drug is tested on Streptococcus sanguinis strain: DSM20567 for biotransformation under microaerobic condition. The drug concentrations were measured over 6 timepoints collected between 0 and 12 hours of incubation by liquid-chromatography-coupled mass spectrometry (LC–MS); set-up: dose 5 uM, timepoint 0, 1.5, 3, 6, 9, 12 hours; details: 5 µM
[28] = The drug is tested on Streptococcus anginosus strain: DSM20563 for biotransformation under anaerobic condition. The drug concentrations were measured over 6 timepoints collected between 0 and 12 hours of incubation by liquid-chromatography-coupled mass spectrometry (LC–MS); set-up: dose 5 uM, timepoint 0, 1.5, 3, 6, 9, 12 hours; details: 5 µM
[29] = as §1, with “T-02” for “A-06”, “microaerobic” for “anaerobic”; set-up: dose 5 uM, timepoint 0, 0.75, 1.5, 3, 6, 9, 12 hours; details: 5 µM
[30] = The drug is tested on Capnocytophaga ochracea strain: DSM7271 for biotransformation under anaerobic condition. The drug concentrations were measured over 6 timepoints collected between 0 and 12 hours of incubation by liquid-chromatography-coupled mass spectrometry (LC–MS); set-up: dose 5 uM, timepoint 0, 1.5, 3, 6, 9, 12 hours; details: 5 µM

Row | Bacterial Biotransformation [1] | Bacterial Biotransformation [2] | Bacterial Biotransformation [3] | Bacterial Biotransformation [4] | Bacterial Biotransformation [5] | Bacterial Biotransformation [6] | Bacterial Biotransformation [7] | Bacterial Biotransformation [8] | Bacterial Biotransformation [9] | Bacterial Biotransformation [10] | Bacterial Biotransformation [11] | Bacterial Biotransformation [12] | Bacterial Biotransformation [13] | Bacterial Biotransformation [14] | Bacterial Biotransformation [15] | Bacterial Biotransformation [16] | Bacterial Biotransformation [17] | Bacterial Biotransformation [18] | Bacterial Biotransformation [19] | Bacterial Biotransformation [20] | Compound | also measured
1 | Compound metabolized | Compound metabolized | Compound NOT metabolized | Compound NOT metabolized | Compound NOT metabolized | Compound metabolized | Compound NOT metabolized | Compound NOT metabolized | Compound NOT metabolized | Compound NOT metabolized | Compound metabolized | Compound metabolized | Compound NOT metabolized | Compound NOT metabolized | Compound NOT metabolized | Compound NOT metabolized | Compound NOT metabolized | Compound NOT metabolized | Compound NOT metabolized | Compound NOT metabolized | C[C@]12C=CC(=O)C=C1CC[C@@H]1[C@@H]2[C@@H](O)C[C@@]2(C)[C@H]1CC[C@]2(O)C(=O)CO [PREDNISOLONE] | Bacterial Biotransformation [21]: Compound metabolized; Bacterial Biotransformation [22]: Compound metabolized; Bacterial Biotransformation [23]: Compound NOT metabolized; Bacterial Biotransformation [24]: Compound NOT metabolized; Bacterial Biotransformation [25]: Compound metabolized; Bacterial Biotransformation [26]: Compound NOT metabolized; Bacterial Biotransformation [27]: Compound NOT metabolized; Bacterial Biotransformation [28]: Compound NOT metabolized; Bacterial Biotransformation [29]: Compound metabolized; Bacterial Biotransformation [30]: Compound NOT metabolized
2 | Compound NOT metabolized | Compound NOT metabolized | Compound NOT metabolized | Compound NOT metabolized | Compound NOT metabolized | Compound NOT metabolized | Compound NOT metabolized | Compound NOT metabolized | Compound NOT metabolized | Compound NOT metabolized | Compound NOT metabolized | Compound NOT metabolized | Compound NOT metabolized | Compound NOT metabolized | Compound NOT metabolized | Compound NOT metabolized | Compound NOT metabolized | Compound NOT metabolized | Compound NOT metabolized | Compound NOT metabolized | NS(=O)(=O)c1cc(C(=O)O)c(NCc2ccco2)cc1Cl [FUROSEMIDE] | Bacterial Biotransformation [21]: Compound NOT metabolized; Bacterial Biotransformation [22]: Compound NOT metabolized; Bacterial Biotransformation [23]: Compound NOT metabolized; Bacterial Biotransformation [24]: Compound NOT metabolized; Bacterial Biotransformation [25]: Compound NOT metabolized; Bacterial Biotransformation [26]: Compound NOT metabolized; Bacterial Biotransformation [27]: Compound NOT metabolized; Bacterial Biotransformation [28]: Compound NOT metabolized; Bacterial Biotransformation [29]: Compound NOT metabolized; Bacterial Biotransformation [30]: Compound NOT metabolized
3 | Compound metabolized | Compound metabolized | Compound NOT metabolized | Compound NOT metabolized | Compound NOT metabolized | Compound metabolized | Compound NOT metabolized | Compound NOT metabolized | Compound metabolized | Compound NOT metabolized | Compound NOT metabolized | Compound metabolized | Compound metabolized | Compound NOT metabolized | Compound NOT metabolized | Compound metabolized | Compound metabolized | Compound NOT metabolized | Compound NOT metabolized | Compound NOT metabolized | CO[C@H]1C[C@@H]2CC[C@@H](C)[C@@](O)(O2)C(=O)C(=O)N2CCCC[C@H]2C(=O)O[C@H]([C@H](C)C[C@@H]2CC[C@@H](O)[C@H](OC)C2)CC(=O)[C@H](C)/C=C(\C)[C@@H](O)[C@@H](OC)C(=O)[C@H](C)C[C@H](C)/C=C/C=C/C=C/1C [SIROLIMUS] | Bacterial Biotransformation [21]: Compound NOT metabolized; Bacterial Biotransformation [22]: Compound metabolized; Bacterial Biotransformation [23]: Compound NOT metabolized; Bacterial Biotransformation [24]: Compound NOT metabolized; Bacterial Biotransformation [25]: Compound metabolized; Bacterial Biotransformation [26]: Compound NOT metabolized; Bacterial Biotransformation [27]: Compound NOT metabolized; Bacterial Biotransformation [28]: Compound NOT metabolized; Bacterial Biotransformation [29]: Compound metabolized; Bacterial Biotransformation [30]: Compound metabolized
